These results are taken from patent publication US7368578B2, “Five-membered heterocyclic compounds” (Takeda Pharmaceutical Company Limited, priority 2002, dated 2008).

Broadly, the melting point is the temperature of the solid-liquid transition.

Take `CCCc1nnc(/C=C/c2cn(-c3ccccc3)nc2OCc2ccc(OCc3nc(-c4ccco4)oc3C)c(OC)c2)o1` [Example 127, 2-((E)-2-{3-[(4-{[2-(2-furyl)-5-methyl-1,3-oxazol-4-yl]methoxy}-3-methoxybenzyl)oxy]-1-phenyl-1H-pyrazol-4-yl}ethenyl)-5-propyl-1,3,4-oxadiazole]: the melting point fell in the range of 165 to 166 °C. With `COc1cc(COc2nn(-c3ccccc3)cc2/C=C/[S+](C)[O-])ccc1OCc1nc(-c2ccco2)oc1C` (stereo not drawn) [Example 128 (E form), 2-(2-furyl)-4-({2-methoxy-4-[({4-[(E)-2-(methylsulfinyl)ethenyl]-1-phenyl-1H-pyrazol-3-yl}oxy)methyl]phenoxy}methyl)-5-methyl-1,3-oxazole], the melting point lay in the range of 156 to 157 °C. In the case of `COc1cc(COc2nn(-c3ccccc3)cc2/C=C\[S+](C)[O-])ccc1OCc1nc(-c2ccco2)oc1C` (stereo not drawn) [Example 128 (Z form), 2-(2-furyl)-4-({2-methoxy-4-[({4-[(Z)-2-(methylsulfinyl)ethenyl]-1-phenyl-1H-pyrazol-3-yl}oxy)methyl]phenoxy}methyl)-5-methyl-1,3-oxazole] it was 180 to 181 °C; in that of `COc1cc(COc2nn(-c3ccccc3)cc2/C=C/S(C)(=O)=O)ccc1OCc1nc(-c2ccco2)oc1C` [Example 130, 2-(2-furyl)-4-({2-methoxy-4-[({4-[(E)-2-(methylsulfonyl)ethenyl]-1-phenyl-1H-pyrazol-3-yl}oxy)methyl]phenoxy}methyl)-5-methyl-1,3-oxazole], 152 to 153 °C; in that of `COc1cc(COc2nn(-c3ccccc3)cc2/C=C\S(C)(=O)=O)ccc1OCc1nc(-c2ccco2)oc1C` [Example 131, 2-(2-furyl)-4-({2-methoxy-4-[({4-[(Z)-2-(methylsulfonyl)ethenyl]-1-phenyl-1H-pyrazol-3-yl}oxy)methyl]phenoxy}methyl)-5-methyl-1,3-oxazole], 158 to 159 °C. `CCCc1nnc(/C=C/c2cn(Cc3ccccc3)nc2OCc2ccc(OCc3nc(-c4ccco4)oc3C)c(OC)c2)o1` [Example 132, 2-((E)-2-{1-benzyl-3-[(4-{[2-(2-furyl)-5-methyl-1,3-oxazol-4-yl]methoxy}-3-methoxybenzyl)oxy]-1H-pyrazol-4-yl}ethenyl)-5-propyl-1,3,4-oxadiazole] registered a melting point of 146 to 147 °C.

On to `CCCc1nnc(/C=C/c2nc(-c3ccccc3)oc2COc2ccc(OCc3nc(-c4ccccc4)oc3C)cc2)o1` [Example 133, 2-{(E)-2-[5-({4-[(5-methyl-2-phenyl-1,3-oxazol-4-yl)methoxy]phenoxy}methyl)-2-phenyl-1,3-oxazol-4-yl]ethenyl}-5-propyl-1,3,4-oxadiazole], for which the melting point fell in the range of 119 to 120 °C. With `CCOC(=O)/C=C/c1cc(OCc2ccc(OCc3nc(-c4ccco4)oc3C)c(OC)c2)nn1-c1ccccc1` [Example 135, ethyl (2E)-3-{3-[(4-{[2-(2-furyl)-5-methyl-1,3-oxazol-4-yl]methoxy}-3-methoxybenzyl)oxy]-1-phenyl-1H-pyrazol-5-yl}-2-propenoate] the figure was 127 to 128 °C.

As to `COc1cc(COc2cc(/C=C/C(=O)O)n(-c3ccccc3)n2)ccc1OCc1nc(-c2ccco2)oc1C` [Example 136, (2E)-3-{3-[(4-{[2-(2-furyl)-5-methyl-1,3-oxazol-4-yl]methoxy}-3-methoxybenzyl)oxy]-1-phenyl-1H-pyrazol-5-yl}-2-propenoic acid], the melting point was in the range of 191 to 192 °C. In the case of `CCCc1nnc(/C=C/c2cc(OCc3ccc(OCc4nc(-c5ccco5)oc4C)c(OC)c3)nn2-c2ccccc2)o1` [Example 138, 2-((E)-2-{3-[(4-{[2-(2-furyl)-5-methyl-1,3-oxazol-4-yl]methoxy}-3-methoxybenzyl)oxy]-1-phenyl-1H-pyrazol-5-yl}ethenyl)-5-propyl-1,3,4-oxadiazole] it was 107 to 108 °C; in that of `COc1cc(COc2cc(/C=C/c3cscn3)n(-c3ccccc3)n2)ccc1OCc1nc(-c2ccco2)oc1C` [Example 139, 2-(2-furyl)-4-({2-methoxy-4-[({1-phenyl-5-[(E)-2-(1,3-thiazol-4-yl)ethenyl]-1H-pyrazol-3-yl}oxy)methyl]phenoxy}methyl)-5-methyl-1,3-oxazole], 154 to 155 °C. In the case of `COc1cc(COc2cc(/C=C/c3ccccn3)n(-c3ccccc3)n2)ccc1OCc1nc(-c2ccco2)oc1C` [Example 140, 2-((E)-2-{3-[(4-{[2-(2-furyl)-5-methyl-1,3-oxazol-4-yl]methoxy}-3-methoxybenzyl)oxy]-1-phenyl-1H-pyrazol-5-yl}ethenyl)pyridine], the melting point was in the range of 122 to 123 °C. With `COc1cc(COc2cc(CCc3ccccn3)n(-c3ccccc3)n2)ccc1OCc1nc(-c2ccco2)oc1C` [Example 141, 2-(2-{3-[(4-{[2-(2-furyl)-5-methyl-1,3-oxazol-4-yl]methoxy}-3-methoxybenzyl)oxy]-1-phenyl-1H-pyrazol-5-yl}ethyl)pyridine] the figure was 104 to 105 °C; with `COc1cc(COc2cc(Cn3cncn3)n(-c3ccccc3)n2)ccc1OCc1nc(-c2ccco2)oc1C` [Example 143, 1-({3-[(4-{[2-(2-furyl)-5-methyl-1,3-oxazol-4-yl]methoxy}-3-methoxybenzyl)oxy]-1-phenyl-1H-pyrazol-5-yl}methyl)-1H-1,2,4-triazole], 95 to 96 °C. With `COc1cc(COc2nn(-c3ccccc3)cc2/C=C\c2csc(C)n2)ccc1OCc1nc(-c2ccco2)oc1C` [Example 150 (Z form), 2-(2-furyl)-4-({2-methoxy-4-[({4-[(Z)-2-(2-methyl-1,3-thiazol-4-yl)ethenyl]-1-phenyl-1H-pyrazol-3-yl}oxy)methyl]phenoxy}methyl)-5-methyl-1,3-oxazole] the figure was 164 to 165 °C. Take `CCc1nc(/C=C/c2cn(-c3ccccc3)nc2OCc2ccc(OCc3nc(-c4ccco4)oc3C)c(OC)c2)cs1` [Example 152 (E form), 4-({4-[({4-[(E)-2-(2-ethyl-1,3-thiazol-4-yl)ethenyl]-1-phenyl-1H-pyrazol-3-yl}oxy)methyl]-2-methoxyphenoxy}methyl)-2-(2-furyl)-5-methyl-1,3-oxazole]: the melting point was 108 to 109 °C.

On to `CCc1nc(/C=C\c2cn(-c3ccccc3)nc2OCc2ccc(OCc3nc(-c4ccco4)oc3C)c(OC)c2)cs1` [Example 152 (Z form), 4-({4-[({4-[(Z)-2-(2-ethyl-1,3-thiazol-4-yl)ethenyl]-1-phenyl-1H-pyrazol-3-yl}oxy)methyl]-2-methoxyphenoxy}methyl)-2-(2-furyl)-5-methyl-1,3-oxazole], for which the melting point lay within 132 to 133 °C.

Consider `CCOc1cc(COc2nn(-c3ccccc3)cc2C=O)ccc1OCc1nc(-c2ccco2)oc1C` [Example 154, 3-[(3-ethoxy-4-{[2-(2-furyl)-5-methyl-1,3-oxazol-4-yl]methoxy}benzyl)oxy]-1-phenyl-1H-pyrazole-4-carbaldehyde], for which the melting point lay in the range of 149 to 150 °C. With `COc1cc(COc2nn(-c3ccccc3)cc2/C=C/C(C)=O)ccc1OCc1nc(-c2ccco2)oc1C` [Example 155, (3E)-4-{3-[(4-{[2-(2-furyl)-5-methyl-1,3-oxazol-4-yl]methoxy}-3-methoxybenzyl)oxy]-1-phenyl-1H-pyrazol-4-yl}-3-buten-2-one] the figure was 177 to 178 °C.

For the compound `CCCC(=O)/C=C/c1cn(-c2ccccc2)nc1OCc1ccc(OCc2nc(-c3ccco3)oc2C)c(OC)c1` [Example 157, (1E)-1-{3-[(4-{[2-(2-furyl)-5-methyl-1,3-oxazol-4-yl]methoxy}-3-methoxybenzyl)oxy]-1-phenyl-1H-pyrazol-4-yl}-1-hexen-3-one], the melting point was in the range of 167 to 168 °C. With `COc1cc(COc2nn(-c3ccccc3)cc2/C=C/P(=O)(O)O)ccc1OCc1nc(-c2ccco2)oc1C` [Example 158, (E)-2-{3-[(4-{[2-(2-furyl)-5-methyl-1,3-oxazol-4-yl]methoxy}-3-methoxybenzyl)oxy]-1-phenyl-1H-pyrazol-4-yl}ethenylphosphonic acid] the figure was 138 to 140 °C.

`COc1cc(COc2nn(-c3ccccc3)cc2/C=C/C(=O)N(C)OC)ccc1OCc1nc(-c2ccco2)oc1C` [Example 162, (2E)-3-{3-[(4-{[2-(2-furyl)-5-methyl-1,3-oxazol-4-yl]methoxy}-3-methoxybenzyl)oxy]-1-phenyl-1H-pyrazol-4-yl}-N-methoxy-N-methyl-2-propenamide] showed a melting point of 173 to 174 °C. With `COC(=O)c1cc(COc2nn(-c3ccccc3)cc2C=O)ccc1OCc1nc(-c2ccco2)oc1C` [Example 163, methyl 5-{[(4-formyl-1-phenyl-1H-pyrazol-3-yl)oxy]methyl}-2-{[2-(2-furyl)-5-methyl-1,3-oxazol-4-yl]methoxy}benzoate] the figure was 173 to 174 °C; with `Cc1oc(-c2ccco2)nc1COc1ccc(COc2nn(-c3ccccc3)cc2C=O)cn1` [Example 164, 3-[(6-{[2-(2-furyl)-5-methyl-1,3-oxazol-4-yl]methoxy}pyridin-3-yl)methoxy]-1-phenyl-1H-pyrazole-4-carbaldehyde], 122 to 123 °C.

As for `CCOC(=O)/C=C/c1cn(C)nc1OCc1ccc(OCc2nc(-c3ccco3)oc2C)c(OC)c1` [Example 165, ethyl (2E)-3-{3-[(4-([2-(2-furyl)-5-methyl-1,3-oxazol-4-yl]methoxy}-3-methoxybenzyl)oxy]-1-methyl-1H-pyrazol-4-yl)-2-propenoate], the melting point lay within 135 to 136 °C. With `COc1cc(COc2nn(C)cc2/C=C/c2cscn2)ccc1OCc1nc(-c2ccco2)oc1C` [Example 167 (E form), 2-(2-furyl)-4-({2-methoxy-4-[({1-methyl-4-[(E)-2-(1,3-thiazol-4-yl)ethenyl]-1H-pyrazol-3-yl}oxy)methyl]phenoxy}methyl)-5-methyl-1,3-oxazole] the figure was 134 to 135 °C.

With `COc1cc(COc2nn(C)cc2/C=C\c2cscn2)ccc1OCc1nc(-c2ccco2)oc1C` [Example 167 (Z form), 2-(2-furyl)-4-({2-methoxy-4-[({1-methyl-4-[(Z)-2-(1,3-thiazol-4-yl)ethenyl]-1H-pyrazol-3-yl}oxy)methyl]phenoxy}methyl)-5-methyl-1,3-oxazole], the melting point is 97 to 98 °C.
